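A five-concentration, 48-hour dose response in 96-well plates underlies each endpoint, interpolated linearly between surrounding concentrations. At the GI50, growth is halved.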 Active and inactive are the calls of the source. Rule as the data show it: active = GI50 up to about 1.1 µM and inactive = higher.
Tests used:
Assay in all cases: inhibition of tumour cell growth, NCI panel, 48 h
SW-620 = system: SW-620
SN12C = system: SN12C
K562 = system: K562
SNB-75 = system: SNB-75
A549 = system: A549
HL-60 = system: HL-60
EKVX = system: EKVX
A498 = system: A498
HCT-15 = system: HCT-15
Hs-578T = system: Hs-578T
UO-31 = system: UO-31
MDA-MB-435 = system: MDA-MB-435
LOX IMVI = system: LOX IMVI
MDA-MB-231 = system: MDA-MB-231
OVCAR-5 = system: OVCAR-5
SK-MEL-5 = system: SK-MEL-5
HOP-92 = system: HOP-92
UACC-257 = system: UACC-257
SK-MEL-28 = system: SK-MEL-28
TK-10 = system: TK-10
RXF 393 = system: RXF 393
NCI-H522 = system: NCI-H522
HCT-116 = system: HCT-116
MCF7 = system: MCF7
HT-29 = system: HT-29
ACHN = system: ACHN
SF-295 = system: SF-295
NCI-H23 = system: NCI-H23
SF-268 = system: SF-268
NCI/ADR-RES = system: NCI/ADR-RES
HOP-62 = system: HOP-62
U-251 = system: U-251
DU-145 = system: DU-145
OVCAR-8 = system: OVCAR-8
SR = system: SR
HCC 2998 = system: HCC 2998
UACC-62 = system: UACC-62
MDA-N = system: MDA-N
SK-MEL-2 = system: SK-MEL-2
M14 = system: M14
SK-OV-3 = system: SK-OV-3
CCRF-CEM = system: CCRF-CEM
COLO 205 = system: COLO 205
NCI-H460 = system: NCI-H460
Malme-3M = system: Malme-3M
MOLT-4 = system: MOLT-4
KM12 = system: KM12
SF-539 = system: SF-539
OVCAR-4 = system: OVCAR-4
PC-3 = system: PC-3
RPMI-8226 = system: RPMI-8226
NCI-H226 = system: NCI-H226
T47D = system: T47D
SNB-19 = system: SNB-19
786-0 = system: 786-0
IGROV-1 = system: IGROV-1
OVCAR-3 = system: OVCAR-3
CAKI-1 = system: CAKI-1
BT-549 = system: BT-549

In the case of `Cc1nc2c(nc1C)-c1[nH]c3c(c1C(=O)C2=O)CCCC3=O`, the GI50 (SW-620) is reported as 1.95 µM (inactive), the GI50 (SN12C) is reported as 1.77 µM (inactive) and the GI50 (K562) is reported as 2.03 µM (inactive). The GI50 (SNB-75) was 1.77 µM (inactive), the GI50 (A549) was 3.87 µM (inactive) and the GI50 (HL-60) was 2.42 µM (inactive). The GI50 (EKVX) was 1.48 µM (inactive), the GI50 (A498) was 8.3 µM (inactive) and the GI50 (HCT-15) was 2.81 µM. The GI50 (Hs-578T) was 3.66 µM (inactive), the GI50 (UO-31) was 4.02 µM (inactive) and the GI50 (MDA-MB-435) was 0.483 µM (active). For the same compound, the GI50 (LOX IMVI) was 0.957 µM (active), the GI50 (MDA-MB-231) was 1.59 µM (inactive) and the GI50 (OVCAR-5) was 2.18 µM (inactive). For the same compound, the GI50 (SK-MEL-5) was 1.49 µM (inactive), the GI50 (HOP-92) was 1.69 µM (inactive) and the GI50 (UACC-257) was 2.02 µM (inactive). The GI50 (SK-MEL-28) was 1.71 µM (inactive), the GI50 (TK-10) was 17.5 µM (inactive) and the GI50 (RXF 393) was 0.516 µM (active). For the same compound, the GI50 (NCI-H522) was 2.1 µM (inactive), the GI50 (HCT-116) was 2.54 µM (inactive) and the GI50 (MCF7) was 1.38 µM (inactive). For the same compound, the GI50 (HT-29) was 5.74 µM (inactive), the GI50 (ACHN) was 2.64 µM (inactive) and the GI50 (SF-295) was 1.79 µM (inactive). For the same compound, the GI50 (NCI-H23) was 1.93 µM (inactive), the GI50 (SF-268) was 1.47 µM (inactive) and the GI50 (NCI/ADR-RES) was 2.25 µM (inactive). For the same compound, the GI50 (HOP-62) was 2.32 µM (inactive), the GI50 (U-251) was 1.34 µM (inactive) and the GI50 (DU-145) was 4.49 µM (inactive). The GI50 (OVCAR-8) was 1.5 µM (inactive), the GI50 (SR) was 2.08 µM (inactive) and the GI50 (HCC 2998) was 2.08 µM (inactive). The GI50 (UACC-62) was 1.71 µM (inactive), the GI50 (MDA-N) was 0.685 µM (active) and the GI50 (SK-MEL-2) was 1.79 µM (inactive). For the same compound, the GI50 (M14) was 1.77 µM (inactive), the GI50 (SK-OV-3) was 2.4 µM (inactive) and the GI50 (CCRF-CEM) was 1.91 µM (inactive). For the same compound, the GI50 (COLO 205) was 2.88 µM (inactive), the GI50 (NCI-H460) was 3.94 µM (inactive) and the GI50 (Malme-3M) was 1.29 µM (inactive). For the same compound, the GI50 (MOLT-4) was 2.23 µM (inactive), the GI50 (KM12) was 1.95 µM (inactive) and the GI50 (SF-539) was 1.68 µM (inactive). For the same compound, the GI50 (OVCAR-4) was 1.6 µM (inactive), the GI50 (PC-3) was 4.25 µM (inactive) and the GI50 (RPMI-8226) was 1.25 µM (inactive). The GI50 (NCI-H226) was 1.62 µM (inactive), the GI50 (T47D) was 0.592 µM (active) and the GI50 (SNB-19) was 2.33 µM (inactive). The GI50 (786-0) was 2.54 µM (inactive) and the GI50 (IGROV-1) was 2.55 µM (inactive).

`COc1ccc(C(OC(C)=O)C2C(=C(C#N)C#N)c3ccccc3C2=C(C#N)C#N)cc1` (configuration not stated) was tested, and the GI50 (SW-620) was 36.8 µM (inactive), the GI50 (K562) was 30.1 µM (inactive) and the GI50 (SNB-75) was 36.1 µM (inactive). For the same compound, the GI50 (HL-60) was 18.5 µM (inactive), the GI50 (EKVX) was 39.4 µM (inactive) and the GI50 (A498) was 24.1 µM (inactive). For the same compound, the GI50 (HCT-15) was 31.2 µM, the GI50 (Hs-578T) was 35.6 µM (inactive) and the GI50 (UO-31) was 28 µM (inactive). For the same compound, the GI50 (MDA-MB-435) was 36.7 µM (inactive), the GI50 (LOX IMVI) was 33.9 µM (inactive) and the GI50 (MDA-MB-231) was 39.5 µM (inactive). The GI50 (OVCAR-5) was 17.2 µM (inactive), the GI50 (SK-MEL-5) was 48 µM (inactive) and the GI50 (HOP-92) was 45.1 µM (inactive). The GI50 (UACC-257) was > 100 µM (inactive), the GI50 (SK-MEL-28) was 67.3 µM (inactive) and the GI50 (TK-10) was 83.9 µM (inactive). For the same compound, the GI50 (RXF 393) was 67.9 µM (inactive), the GI50 (NCI-H522) was 38.2 µM (inactive) and the GI50 (HCT-116) was 35.1 µM (inactive). The GI50 (MCF7) was 48.3 µM (inactive), the GI50 (HT-29) was 29.9 µM (inactive) and the GI50 (ACHN) was 36.4 µM (inactive). The GI50 (SF-295) was 19.9 µM (inactive), the GI50 (NCI-H23) was 25.9 µM (inactive) and the GI50 (SF-268) was 35.6 µM (inactive). The GI50 (NCI/ADR-RES) was 50.1 µM (inactive), the GI50 (HOP-62) was 20.8 µM (inactive) and the GI50 (U-251) was 41.9 µM (inactive). For the same compound, the GI50 (DU-145) was 64.9 µM (inactive), the GI50 (OVCAR-8) was 60.7 µM (inactive) and the GI50 (SR) was 16.1 µM (inactive). The GI50 (HCC 2998) was 22.6 µM (inactive), the GI50 (OVCAR-3) was 21.6 µM (inactive) and the GI50 (MDA-N) was 42.1 µM (inactive). The GI50 (SK-MEL-2) was 27.7 µM (inactive), the GI50 (CAKI-1) was 39.6 µM (inactive) and the GI50 (M14) was 40.7 µM (inactive). The GI50 (SK-OV-3) was 18.6 µM (inactive), the GI50 (CCRF-CEM) was 21.8 µM (inactive) and the GI50 (NCI-H460) was 28.1 µM (inactive). The GI50 (MOLT-4) was 25.9 µM (inactive), the GI50 (KM12) was 43.7 µM (inactive) and the GI50 (SF-539) was 20.6 µM (inactive). For the same compound, the GI50 (OVCAR-4) was 32.4 µM (inactive), the GI50 (PC-3) was 21.8 µM (inactive) and the GI50 (RPMI-8226) was 25.5 µM (inactive). For the same compound, the GI50 (NCI-H226) was 38.6 µM (inactive), the GI50 (T47D) was 70 µM (inactive) and the GI50 (786-0) was 60.4 µM (inactive). The GI50 (IGROV-1) was 65.6 µM (inactive).

For `COc1cc2c(cc1OC)-c1c(oc3cc(OC4OC(CO)C(O)C(O)C4O)c(OC)cc3c1=O)C(O)O2` (configuration not stated), the GI50 (SW-620) was > 100 µM (inactive), the GI50 (SN12C) was > 100 µM (inactive) and the GI50 (K562) was > 100 µM (inactive). The GI50 (SNB-75) was > 100 µM (inactive), the GI50 (A549) was > 100 µM (inactive) and the GI50 (HL-60) was > 100 µM (inactive). The GI50 (EKVX) was > 100 µM (inactive), the GI50 (A498) was > 100 µM (inactive) and the GI50 (HCT-15) was > 100 µM. For the same compound, the GI50 (Hs-578T) was > 100 µM (inactive), the GI50 (UO-31) was > 100 µM (inactive) and the GI50 (MDA-MB-435) was > 100 µM (inactive). The GI50 (LOX IMVI) was > 100 µM (inactive), the GI50 (MDA-MB-231) was > 100 µM (inactive) and the GI50 (OVCAR-5) was > 100 µM (inactive). The GI50 (SK-MEL-5) was > 100 µM (inactive), the GI50 (HOP-92) was > 100 µM (inactive) and the GI50 (UACC-257) was > 100 µM (inactive). For the same compound, the GI50 (SK-MEL-28) was > 100 µM (inactive), the GI50 (TK-10) was > 100 µM (inactive) and the GI50 (RXF 393) was > 100 µM (inactive). For the same compound, the GI50 (NCI-H522) was > 100 µM (inactive), the GI50 (BT-549) was > 100 µM (inactive) and the GI50 (HCT-116) was > 100 µM (inactive). The GI50 (HT-29) was > 100 µM (inactive), the GI50 (ACHN) was > 100 µM (inactive) and the GI50 (SF-295) was > 100 µM (inactive). The GI50 (NCI-H23) was > 100 µM (inactive), the GI50 (SF-268) was > 100 µM (inactive) and the GI50 (NCI/ADR-RES) was > 100 µM (inactive). For the same compound, the GI50 (HOP-62) was > 100 µM (inactive), the GI50 (U-251) was > 100 µM (inactive) and the GI50 (DU-145) was > 100 µM (inactive). For the same compound, the GI50 (OVCAR-8) was > 100 µM (inactive), the GI50 (HCC 2998) was > 100 µM (inactive) and the GI50 (UACC-62) was > 100 µM (inactive). For the same compound, the GI50 (OVCAR-3) was > 100 µM (inactive), the GI50 (SK-MEL-2) was > 100 µM (inactive) and the GI50 (CAKI-1) was > 100 µM (inactive). For the same compound, the GI50 (M14) was > 100 µM (inactive), the GI50 (SK-OV-3) was > 100 µM (inactive) and the GI50 (CCRF-CEM) was > 100 µM (inactive). The GI50 (COLO 205) was > 100 µM (inactive), the GI50 (NCI-H460) was > 100 µM (inactive) and the GI50 (Malme-3M) was > 100 µM (inactive). For the same compound, the GI50 (KM12) was > 100 µM (inactive), the GI50 (SF-539) was > 100 µM (inactive) and the GI50 (OVCAR-4) was > 100 µM (inactive). The GI50 (PC-3) was > 100 µM (inactive), the GI50 (RPMI-8226) was > 100 µM (inactive) and the GI50 (NCI-H226) was > 100 µM (inactive). For the same compound, the GI50 (SNB-19) was > 100 µM (inactive), the GI50 (786-0) was > 100 µM (inactive) and the GI50 (IGROV-1) was > 100 µM (inactive).
